Measured values published in patent USRE38090E1, “3′-substituted nucleoside derivative” (Taiho Pharmaceutical Co., Ltd., priority 1994, dated 2003).
Converted amounts (≈) assume the structure as drawn. Where a name gives a salt, the structure may show the parent alone.

Columns and labels:
[1] = test system: Murine Leukemia P388 cells; assay: Survival effect against murine leukemia P388; assay type: in vivo; conditions: P388 implanted i.p. in female CDFI mice
Description: Survival effect against murine leukemia P388:
Murine Leukemia P388 cells (1×10^6 cells) were implanted intraperitoneally in three female CDFI mice (aged 8 weeks) per group. On the day subsequent to the implantation and the fifth day, test compounds at varied concentrations were administered intraperitoneally to their corresponding groups of mice. Average survival days of each group were determined to find a survival rate (T/C, %) in accordance with the following equation.

Human KB cells = assay: Cytotoxicity, MTT method; assay type: cell-based; conditions: 72 h, 3 days at 37° C., read-out: IC50 (concentration at which the number of cells was decreased by 50%)
Description: Human KB cells were spread in a proportion of 1×10^5 cells/well on a 96-well plate. After a compound according to the present invention was dissolved in purified water, the solution was diluted to various concentrations with an RPMI 1640 medium and then added to each well, thereby conducting culture. After incubating at 37° C. for 3 days in a 5% CO2-incubator, the number of cells was counted by an MTT method.
The cytotoxicity of each of the compounds tested was expressed by a concentration (IC50) of the compound at which the number of cells was decreased by 50% compared with a control.

[2] = dose 1 mg/kg i.p. on day 1 and day 5
[3] = dose 3 mg/kg i.p. on day 1 and day 5

Row | Compound | melting point | further results
1 | C#C[C@@]1(O)[C@@H](CO)O[C@@H](n2cc(F)c(N)nc2=O)[C@@H]1O [Compound 4, 1-(3-C-ethynyl-β-D-ribofuranosyl)-5-fluorocytosine] | 242 °C (dec.) | –
2 | C#C[C@@]1(O)[C@@H](CO)O[C@@H](n2ccc(N)nc2=O)[C@@H]1O [Compound 2, 1-(3-C-ethynyl-β-D-ribofuranosyl) cytosine] | – | survival rate T/C (%) [1, 2]: 211%; survival rate T/C (%) [1, 3]: 206%
3 | CCC#C[C@@]1(O)[C@@H](CO)O[C@@H](n2ccc(=O)[nH]c2=O)[C@@H]1O [Compound 26, 1-(3-C-(1-butynyl)-β-D-ribofuranosyl) uracil] | 139 to 142 °C | –
4 | C#C[C@@]1(O)[C@@H](CO)O[C@@H](n2c(=O)cc[nH]c2=O)[C@@H]1O [Compound 8, 3-(3-C-ethynyl-β-D-ribofuranosyl) uracil] | 255 °C (dec.) | –
5 | C=C[C@@]1(O)[C@@H](CO)O[C@@H](n2ccc(N)nc2=O)[C@@H]1O [Compound 22, 1-(3-C-ethenyl-β-D-ribofuranosyl) cytosine] | 194 to 197 °C | –
6 | C#C[C@@]1(O)[C@@H](CO)O[C@@H](n2ccc(=O)[nH]c2=O)[C@@H]1O [Compound 7, 1-(3-C-ethynyl-β-D-ribofuranosyl) uracil] | – | survival rate T/C (%) [1, 2]: 144%; survival rate T/C (%) [1, 3]: 150%; IC50 (Human KB cells): 7.7 ng/mL (≈ 0.0287 µM)
7 | CC[C@@]1(O)[C@@H](CO)O[C@@H](n2ccc(=O)[nH]c2=O)[C@@H]1O [Comparative compound 1, 1-(3-C-ethyl-β-D-ribofuranosyl)uracil, reference compound] | – | IC50 (Human KB cells): > 100000 ng/mL
8 | C[Si](C)(C)C#C[C@@]1(O)[C@@H](CO)O[C@@H](n2ccc(=O)[nH]c2=O)[C@@H]1O [Compound 35, 1-(3-C-trimethylsilylethynyl-β-D-ribofuranosyl)uracil] | 175 to 177 °C | IC50 (Human KB cells): 7.8 ng/mL (≈ 0.0229 µM)
9 | CCC#C[C@@]1(O)[C@@H](CO)O[C@@H](n2ccc(N)nc2=O)[C@@H]1O (as salt: salt) [Compound 20, 1-(3-C-(1-butynyl)-β-D-ribofuranosyl) cytosine] | 181 to 184 °C | –
10 | CC#C[C@@]1(O)[C@@H](CO)O[C@@H](n2ccc(N)nc2=O)[C@@H]1O (as salt: salt) [Compound 18, 1-(3-C-(1-propynyl)-β-D-ribofuranosyl)cytosine] | 162 to 165 °C | –
11 | CC#C[C@@]1(O)[C@@H](CO)O[C@@H](n2ccc(=O)[nH]c2=O)[C@@H]1O [Compound 24, 1-(3-C-(1-propynyl)-β-D-ribofuranosyl)uracil] | 211 to 213 °C | –
12 | C#C[C@@]1(O)[C@@H](CO)O[C@@H](n2cc(C)c(=O)[nH]c2=O)[C@@H]1O [Compound 12, 1-(3-C-ethynyl-β-D-ribofuranosyl) thymine] | 113 to 118 °C | –
13 | C=C[C@@]1(O)[C@@H](CO)O[C@@H](n2ccc(=O)[nH]c2=O)[C@@H]1O [Compound 28, 1-(3-C-ethenyl-β-D-ribofuranosyl) uracil] | 219 to 222 °C | –
14 | C#C[C@@]1(O)[C@@H](CO)O[C@@H](n2cnc3c(=O)[nH]c(N)nc32)[C@@H]1O [Compound 16, 9-(3-C-ethynyl-β-D-ribofuranosyl) guanine] | 225 °C (dec.) | –
